Reference: ChEMBL document CHEMBL1147683, “Synthesis of new and potent analogues of anti-tuberculosis agent 5-nitro-furan-2-carboxylic acid 4-(4-benzyl-piperazin-1-yl)-benzylamide with improved bioavailability” (Bioorg Med Chem Lett, 2006)
≈ marks a conversion by molar mass, not a printed value.

Key:
[1] = test system: Mycobacterium tuberculosis; assay: Antituberculosis activity against Mycobacterium tuberculosis; format: functional
[2] = (§1) Cmax in mouse serum at 300 mg/kg, po; format: ADME, organism-based; parameters: dose 300 mg/kg, route oral; conditions: serum
[3] = Tmax in mouse at 300 mg/kg, po; format: ADME, organism-based; parameters: dose 300 mg/kg, route oral; conditions: in vivo
[4] = Half life in mouse serum at 300 mg/kg, po; format: ADME, organism-based; parameters: dose 300 mg/kg, route oral
Mus musculus = assay: as §1; format: ADME, organism-based; parameters: dose 300 mg/kg, route oral; conditions: in vivo

Structure (SMILES)	MIC90 [1] [µg/mL]	Cmax [2] [ng/mL]	Tmax [3] [h]	half-life [4] [h]	Cmax (Mus musculus) [ng/mL]
CC(C)COC(=O)N1CCN(c2ccc(CNC(=O)c3ccc([N+](=O)[O-])o3)cc2)CC1	0.05 (≈ 0.116 µM)				
O=C(c1ccc([N+](=O)[O-])o1)N1CCc2cc(N3CCN(Cc4ccccc4)CC3)ccc2C1	0.0062 (≈ 0.0139 µM)				
CC(C)NC(=O)N1CCCN(c2ccc(CNC(=O)c3ccc([N+](=O)[O-])o3)cc2)CC1	0.8 (≈ 1.86 µM)	7400	0.5	2	
CCCNC(=O)N1CCN(c2ccc(CNC(=O)c3ccc([N+](=O)[O-])o3)cc2)CC1	0.2 (≈ 0.481 µM)	4800	2.5	1.5	
CN1CCN(c2ccc3c(c2)CCN(C(=O)c2ccc([N+](=O)[O-])o2)C3)CC1.Cl		280	0.5	2	
CCOC(=O)N1CCN(c2ccc(CNC(=O)c3ccc([N+](=O)[O-])o3)cc2)CC1	0.0062 (≈ 0.0154 µM)				
Cl.O=C(NCc1ccc(N2CCN(Cc3ccccc3)CC2)cc1)c1ccc([N+](=O)[O-])o1					2240
O=C(c1ccc([N+](=O)[O-])o1)N1CCc2cc(N3CCSCC3)ccc2C1	0.4 (≈ 1.07 µM)				
CC(C)NC(=O)N1CCN(c2ccc(CNC(=O)c3ccc([N+](=O)[O-])o3)cn2)CC1	0.56 (≈ 1.34 µM)	22000	2.5	0.5	
O=C(NCc1ccc(N2CCCN(Cc3ccccc3)CC2)cc1)c1ccc([N+](=O)[O-])o1	0.8 (≈ 1.84 µM)				
Cl.O=C(c1ccc([N+](=O)[O-])o1)N1CCc2cc(N3CCN(Cc4ccccc4)CC3)ccc2C1		736	0.5	3.5	
CN1CCN(c2ccc3c(c2)CCN(C(=O)c2ccc([N+](=O)[O-])o2)C3)CC1	0.2 (≈ 0.54 µM)				
CC(C)(C)OC(=O)N1CCCN(c2ccc(CNC(=O)c3ccc([N+](=O)[O-])o3)cc2)CC1	0.1 (≈ 0.225 µM)	280	0.5	7.5	
COC(=O)N1CCN(c2ccc(CNC(=O)c3ccc([N+](=O)[O-])o3)cc2)CC1	0.1 (≈ 0.257 µM)				
CCCCOC(=O)N1CCN(c2ccc(CNC(=O)c3ccc([N+](=O)[O-])o3)cc2)CC1	0.05 (≈ 0.116 µM)				
CC(C)(C)OC(=O)N1CCN(c2ccc(CNC(=O)c3ccc([N+](=O)[O-])o3)cn2)CC1	0.05 (≈ 0.116 µM)	1230	0.5	2.3	
CCOC(=O)N1CCCN(c2ccc(CNC(=O)c3ccc([N+](=O)[O-])o3)cc2)CC1	0.1 (≈ 0.24 µM)				
CCOC(=O)N1CCN(c2ccc(CNC(=O)c3ccc([N+](=O)[O-])o3)cn2)CC1	0.05 (≈ 0.124 µM)	6560	2.5	0.7	
CC(C)NC(=O)N1CCN(c2ccc(CNC(=O)c3ccc([N+](=O)[O-])o3)cc2)CC1	0.8 (≈ 1.93 µM)				
O=C(NCc1ccc(N2CCN(Cc3ccccc3)CC2)nc1)c1ccc([N+](=O)[O-])o1	0.0062 (≈ 0.0147 µM)	1470	0.5	1.3	
CC(C)(C)OC(=O)N1CCN(c2ccc(CNC(=O)c3ccc([N+](=O)[O-])o3)cc2)CC1	0.025 (≈ 0.0581 µM)				
O=C(NCc1ccc(N2CCN(Cc3ccccc3)CC2)cc1)c1ccc([N+](=O)[O-])o1	0.0125 (≈ 0.0297 µM)				
C=CCOC(=O)N1CCN(c2ccc(CNC(=O)c3ccc([N+](=O)[O-])o3)cc2)CC1	0.5 (≈ 1.21 µM)				
